Blank lines part the entries; values can stand above or below the molecule they belong to. Where a SMILES comes first, the peptide text is derived from it. [ ]: non-standard residue; d: D form. The star is where a group is joined. Nle = CCCC[C@H](N)C(=O)O; Cbz = O=C(OCc1ccccc1)*; CH2F = FC*
How the values were obtained:
[1] = tested on: cell-free Bax cleavage activity (calpain-like) in whole cell extract of VP-16-treated Jurkat T cells; assay: Cell-free Bax cleavage assay with protease inhibitors; type: biochemical, human; conditions: 35S-labeled Bax, 2 hours
Procedure: Briefly, the ^35S-labeled Bax protein (1 μl) was incubated with 100 μg of a whole cell extract or a cytosol or mitochondrial fraction in an assay buffer (10 mM HEPES, pH 7.4, 5 mM MgCl2, 5 mM CaCl2, and 1 mM DTT), supplemented with ATP-regenerating system (0.1 mg/ml creatine kinase, 100 mM creatine phosphate, and 5 mM ATP) for 2 hours at 37° C. […] For inhibitor studies, 10 μM of calpain inhibitor-1 (LLnL), 10 μM of calpain inhibitor-2 (LLM), 20 μM of pan-caspase inhibitor Z-VAD-FMK, 20 μM of caspase-3 inhibitor Ac-DEVD-CMK, or 20 μM of the specific proteasome inhibitor castolactacystin, lactone was added in the Bax cleavage system.

[2] = tested on: Neo cells (Jurkat T cells transfected with vector alone); assay: VP-16 treatment of Neo (vector) Jurkat T cells; type: cell-based, human; conditions: VP-16 50 μM
Procedure: (§1) MCF-7, Jurkat T. Neo and Bcl-2 cells were cultured in RPMI 1640 supplemented with 10% fetal calf serum, 100 units/ml of penicillin and 100 μg/ml of streptomycin at 37° C. in a humidified atmosphere consisting of 5% CO2 and 95% air. […] For the experiment using a specific calpain inhibitor, Jurkat T cells were pretreated for 1 hour with calpeptin at 10 μM, followed by a co-incubation with 50 μM of VP-16, as indicated in figure legends.
(§2) The resulting supernatant was then centrifuged at 14,000×g for 30 minutes, followed by collection of both the supernatant and pellet fractions. […] The supernatant was further centrifuged at 600,000×g for 30 minutes and the resulting supernatant was collected as the cytosol fraction. To prepare a whole cell extract, cells were lysed in the lysis buffer, and the lysate was centrifuged at 14,000×g for 30 minutes.
Briefly, the ^35S-labeled Bax protein (1 μl) was incubated with 100 μg of a whole cell extract or a cytosol or mitochondrial fraction in an assay buffer (10 mM HEPES, pH 7.4, 5 mM MgCl2, 5 mM CaCl2, and 1 mM DTT), supplemented with ATP-regenerating system (0.1 mg/ml creatine kinase, 100 mM creatine phosphate, and 5 mM ATP) for 2 hours at 37° C. […]

Jurkat T cells [3] = assay: Cell-free Bax cleavage activity in whole cell lysates of drug-treated Jurkat T cells; conditions: VP-16 50 μM; absent in untreated cells
[4] = tested on: Bcl-2 cells (Jurkat T cells overexpressing Bcl-2); assay: VP-16 treatment of Bcl-2 overexpressing Jurkat T cells; conditions: VP-16 50 μM
Jurkat T cells [5] = assay: Cytochrome c release from mitochondria to cytosol in drug-treated Jurkat T cells; type: cell-based, human
Procedure: as §2
(§3) The primary antibodies used were: monoclonal B9anti-Bax antibody (Santa Cruz Biotechnology, Santa Cruz, Calif.) at 1:500, monoclonal 6A7 anti-Bax antibody (Pharmingen, San Diego, Calif.) at 1:500, monoclonal anti-Bcl-2 antibody (Dako, Glostrup, Denmark) at 1:500, monoclonal anti-caspase-3 antibody (Onocogene, Cambridge, Mass.) at 1:200, monoclonal anti-cytochrome C antibody (Pharmingen) at 1:500, polyclonal anti-PARP antibody (Boehringer Manheim, Indianapolis, Ind.) at 1:3000, monoclonal anti-cytochrome oxidase unit 11 (COX) antibody (Molecular Probes, Eugene, Oreg.) at 1:200, and monoclonal anti-calpain 30 kDa subunit antibody (Chemicon, Temecula, Calif.) at 1:500.

Jurkat T cells [6] = assay: Apoptotic execution in drug-treated Jurkat T cells (caspase-3 processing, PARP cleavage, DNA fragmentation, TUNEL)
Jurkat T cells [7] = conditions: VP-16 50 μM
Jurkat T cells [8] = assay: Calpeptin pre- and co-treatment of VP-16-treated Jurkat T cells; type: cell-based, human
Procedure: as §1, §2, §3

[9] = tested on: human breast cancer MCF-7; assay: Transient transfection of Bax/p18 or Bax/p21 cDNA in MCF-7 cells; type: cell-based
Procedure: as §2
(§4) Bax/p18 cDNA was amplified by PCR with human Bax-α-cDNA as template using primer 5′-[…] (forward) and 5′-[…] (reverse) (Wood et al., 1998) and cloned into pcDNA3.0 between Hind III and Xho I restriction enzyme sites. Bax/p18 cDNA was verified by sequencing. MCF-7, Jurkat T. Neo and BcI-2 cells were transfected with pcDNA3.0 vector alone or pcDNA3.0 vector containing Bax/p18 or Bax/p21 cDNA using GenePORTER Transfection Reagent (Gene Therapy Systems, San Diego, Calif.) according to the manufacture's instructions. Briefly, 3 μg of plasmid DNA in 500 μl of RPMI 1640 medium was incubated for 30 minutes at room temperature with 25 μl of GenePORTER reagent in 500 μl of RPMI 1640 medium. The resultant GenePORTER-plasmid DNA mixture (1 ml) was then added into cells 2×10^6 cells in a well of a 6-well plate, followed by 5 hours incubation at 37° C. in a humidified atmosphere consisting of 5% CO2. […]

Bcl-2 = target: T1, Bcl-2 (Homo sapiens, UniProt P10415); assay: Immunoprecipitation-Western blot assay of interaction with Bcl-2 in mitochondrial fraction; type: binding; conditions: mitochondrial fraction of Jurkat T cells untreated or treated with VP-16 for 12 hours
T1 construct: the mitochondria fraction (500 μg of protein) from VP-16-treated or untreated Jurkat T cells; endogenous in cells; host or cells: Jurkat T cells, untreated or treated with VP-16 for 12 hours; mitochondrial membrane-enriched fraction
Procedure: Immunoprecipitation assay was performed as described previously (Fattman et al., 1997). Briefly, the mitochondria fraction (500 μg of protein) from VP-16-treated or untreated Jurkat T cells was incubated with a 5 μg of a monoclonal anti-human Bcl-2 antibody overnight at 4° C. The protein-antibody complex was then precipitated by incubating with 2 μl of Protein G plus Protein A agarose (Oncogene) for 1 hour at 4° C. and centrifuging at 2000×g at 4° C. for 1 hour. Both the precipitate and supernatant fractions were then analyzed by immunoblotting using the monoclonal B9 anti-human Bax antibody.

Jurkat T cells [10] = assay: Transient transfection of Bax/p18 or Bax/p21 cDNA in Jurkat T cells; type: cell-based, human; conditions: 48 hours after cDNA transfection
Procedure: as §2
as §4, with “CO2. After that, 1 ml of RPMI 1640 medium containing 20% fetal calf serum was added and the cells were further incubated for additional 43 hours before harvest.” for “CO2.”

[11] = calpeptin 10 μM pre- and co-treatment, VP-16 50 μM

T1 sequence (P10415 whole entry): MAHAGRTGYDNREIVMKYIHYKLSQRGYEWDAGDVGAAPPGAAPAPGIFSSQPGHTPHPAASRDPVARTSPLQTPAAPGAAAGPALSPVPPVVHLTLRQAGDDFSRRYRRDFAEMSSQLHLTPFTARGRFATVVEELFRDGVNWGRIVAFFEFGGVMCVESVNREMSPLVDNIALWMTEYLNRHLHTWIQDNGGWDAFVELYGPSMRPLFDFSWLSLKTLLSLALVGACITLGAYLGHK

Molecule: CC(=O)N[C@@H](CC(=O)O)C(=O)N[C@@H](CCC(=O)O)C(=O)N[C@H](C(=O)N[C@@H](CC(=O)O)C(=O)CCl)C(C)C [Ac-DEVD-CMK]
- inhibition of cell-free Bax cleavage activity ([1]; inhibitor 20 μM): partially inhibited

Molecule: CSCC[C@@H](C=O)NC(=O)[C@H](CC(C)C)NC(=O)[C@H](CC(C)C)NC(C)=O [LLM, calpain inhibitor KK] (Ac-Leu-Leu-Met-aldehyde)
- inhibition of cell-free Bax cleavage activity ([1]; inhibitor 10 μM): completely inhibited

Molecule: CCCC[C@@H](C=O)NC(=O)[C@H](CC(C)C)NC(=O)[C@H](CC(C)C)NC(C)=O [LLnL, calpain inhibitor I] (Ac-Leu-Leu-[Nle]-aldehyde)
- inhibition of cell-free Bax cleavage activity ([1]; inhibitor 10 μM): completely inhibited

Molecule: COc1cc([C@@H]2c3cc4c(cc3[C@@H](O[C@@H]3O[C@@H]5CO[C@@H](C)O[C@H]5[C@H](O)[C@H]3O)[C@H]3COC(=O)[C@H]23)OCO4)cc(OC)c1O [VP-16, Etoposide]
- earliest time of appearance of Bax/p18 and p36 bands [2]: 3 h
- treatment time at which apoptosis was induced (caspase-3 processing, PARP cleavage) [2]: ≥ 6 h
- treatment time at which cell-free Bax cleavage activity is present in cell extract (Jurkat T cells [3]): ≥ 3 h
- delay of appearance of Bax/p18 and p36 bands versus Neo cells [4]: 9 h
- delay of detection of cell-free Bax cleavage activity versus Neo cells [4]: 9 h
- time after which caspase-3 processing and PARP cleavage were observed [4]: 24 h
- time after which release of cytochrome c was detected [4]: 12 h
- time of appearance of Bax/p18 and p36 bands [4]: 12 h
- time of autolysis of calpain 30 kDa subunit (delayed from 3 hours in Neo cells) [4]: 12 h
- treatment time after which cytosolic cytochrome c appeared (Jurkat T cells [5]; VP-16 50 μM): 3 h
- time at which apoptotic execution phase began (caspase-3 processing/activation, PARP cleavage, DNA fragmentation) (Jurkat T cells [6]; VP-16 50 μM): 6 h
- earliest time of Bax cleavage (Bax/p18 and p36 bands, B9 antibody) (Jurkat T cells [7]): 3 h
- time at which autolysis of the calpain 30 kDa subunit began (Jurkat T cells [7]): 3 h

Molecule: COC(=O)C[C@H](NC(=O)[C@H](C)NC(=O)[C@@H](NC(=O)OCc1ccccc1)C(C)C)C(=O)CF [Z-VAD-FMK] (Cbz-Val-Ala-Asp(OMe)-CH2F)
- inhibition of cell-free Bax cleavage activity ([1]; inhibitor 20 μM): partially inhibited

Molecule: CCCC[C@@H](C=O)NC(=O)[C@H](CC(C)C)NC(=O)OCc1ccccc1 [calpeptin, Calpeptin]
- effect on VP-16-induced Bax cleavage (Jurkat T cells [8]; [11]): delay
- effect on VP-16-induced release of cytochrome c from mitochondria to the cytosol (Jurkat T cells [8]; [11]): delay
- time of VP-16-induced caspase-3 processing and PARP cleavage with calpeptin (delayed from 6 hours) (Jurkat T cells [8]; [11]): 24 h
- time of autolysis of the 30 kDa small subunit of calpain with calpeptin (delayed from 3 hours) (Jurkat T cells [8]; [11]): 24 h
- apoptosis induction by the inhibitor itself (Jurkat T cells [8]; calpeptin 10 μM, 1 hour pretreatment, no VP-16): did not induce apoptosis
- inhibition of PARP cleavage at 24 hours (Jurkat T cells [8]; fresh calpeptin added at 18 hours after VP-16 treatment): complete inhibition

Molecule: CN[C@@H]1C[C@H]2O[C@@](C)([C@@H]1OC)n1c3ccccc3c3c4c(c5c6ccccc6n2c5c31)C(=O)NC4 [staurosporin]
- treatment time after which cytosolic cytochrome c appeared (Jurkat T cells [5]; staurosporin 1 μM): 3 h
- time at which caspase-3 processing/activation, PARP cleavage and DNA fragmentation occurred (Jurkat T cells [6]; staurosporin 1 μM, up to 24 hours): ≥ 6 h

- interaction with Bcl-2 (co-immunoprecipitation by anti-Bcl-2 antibody) (Bcl-2): did not interact
Molecule: Bax/p18: calpain-cleaved 18 kDa Bax fragment; the cloned Bax/p18 consists of amino acids 33-192 of Bax, expressed from transfected cDNA
- cytochrome c-associated apoptotic events [9]: release of cytochrome c, cleavage of PARP and fragmentation of DNA
- caspase-3 processing/activation, PARP cleavage and DNA fragmentation (Jurkat T cells [10]): detected
- release of cytochrome c (Jurkat T cells [10]): induced

- interaction with Bcl-2 (co-immunoprecipitation by anti-Bcl-2 antibody) (Bcl-2): co-immunoprecipitated
Molecule: Bax/p21: full-length Bax protein, endogenous or expressed from transfected Bax-α cDNA
- cytochrome c-associated apoptotic events [9]: did not induce
- release of cytochrome c (Jurkat T cells [10]): not observed
